Experiment: Dual-Glo Luciferase Assay: The Dual-Glo Luciferase Reagent was prepared by transferring the contents of one bottle of Dual-Glo Luciferase Buffer to one bottle of Dual-Glo Luciferase Substrate to create the Dual-Glo Luciferase Reagent. Mixing was performed by inversion until the substrate was thoroughly dissolved. After mixing, the reagent was aliquoted into 15 ml tubes. In the afternoon (24 hrs post compound treatment), the DMEM+medium in the 384 well plates were aspirated by Microplate Washer.Measuring firefly luciferase activity: 20 ul Dual-Glo Luciferase Reagent was added to the 384-well plates. The plates were protected from light to prevent interference with the assay. The plates were shaken for 1 min followed centrifuging plates at 1000 rpm for 30 seconds. After waiting at least 10 minutes, the firefly luminescence was measured by Envision.Measuring renilla luciferase activity: 20 ul Stop-Glo Reagent was added to the 384-well plates. The plates were shaken for 1 min and then centrifuged at 1000 rpm for 30 seconds. After waiting at least 10 minutes, the renilla luminescence was measured by Envision.Compound IC50 and maximum inhibition on the firefly luciferase and renilla luciferase activities were reported separately.

CC(C)NC(=O)c1ccc2c(Oc3ccc(C(F)(F)F)cc3)cccc2c1
IC50: < 100 nM

C[C@@H](NC(=O)c1ccc2c(Oc3ccc(C(F)(F)F)cc3)cccc2c1)C1CN(CCCCO)C1
IC50: in the range around 550 nM

CC(C)NC(=O)c1ccc2c(Oc3ccc(C(F)(F)F)cc3Cl)cccc2c1
IC50: < 100 nM

C[C@@H](NC(=O)c1ccc2c(Oc3ccc(C(F)(F)F)cc3)cccc2c1)C1(O)CNC1
IC50: < 100 nM

C[C@H](NC(=O)c1ccc2c(Oc3ccc(C(F)(F)F)cc3)cccc2c1)C1(F)CNC1
IC50: in the range around 2000 nM

CC(C)NC(=O)c1ccc2c(Oc3ccc(Cl)c(Cl)c3)cccc2c1
IC50: < 100 nM

C[C@H](NC(=O)c1ccc2c(Oc3ccc(C(F)(F)F)cc3)cccc2c1)C1CN(C2CC2)C1
IC50: in the range around 2000 nM

CC(C)NC(=O)c1ccc2c(Oc3ccc(C(F)(F)F)cc3)cccc2n1
IC50: < 100 nM

C[C@H](NC(=O)c1cnc2c(Oc3ccc(C(F)(F)F)cc3)cccc2c1)c1cccc2nc[nH]c12
IC50: < 100 nM

C[C@H](NC(=O)c1ccc2c(Oc3ccc(C(F)(F)F)cc3)cccc2c1)c1cccc(N(C)C)n1
IC50: in the range around 550 nM

C[C@@H](NC(=O)c1ccc2c(Oc3ccc(C(F)(F)F)cc3)cccc2c1)C1CCN(CCF)CC1
IC50: in the range around 550 nM

NS(=O)(=O)c1ccc2c(Oc3ccc(C(F)(F)F)cc3)cccc2c1
IC50: < 100 nM

C[C@H](CO)NC(=O)c1ccc2c(Oc3ccc(C(F)(F)F)cc3)cccc2c1
IC50: < 100 nM

C[C@H](CO)NC(=O)c1cc2cccc(Oc3ccc(C(F)(F)F)cc3)c2s1
IC50: < 100 nM

C[C@@H](NC(=O)c1ccc2c(Oc3ccc(C(F)(F)F)cc3)cccc2c1)c1nnnn1C
IC50: in the range around 550 nM

C[C@@H](NC(=O)c1ccc2c(Oc3ccc(C(F)(F)F)cc3)cccc2c1)c1cccc(N)n1
IC50: < 100 nM

C[C@@H](NC(=O)c1ccc2c(Oc3ccc(C(F)(F)F)cc3)cccc2c1)C1CCN(CC(F)F)CC1
IC50: in the range around 550 nM

N#CNC(=O)c1ccc2c(Oc3ccc(C(F)(F)F)cc3)cccc2c1
IC50: in the range around 550 nM

C[C@H](CCNCCF)NC(=O)c1ccc2c(Oc3ccc(C(F)(F)F)cc3)cccc2c1
IC50: < 100 nM

C[C@@H](NC(=O)c1ccc2c(Oc3ccc(C(F)(F)F)cc3)cccc2c1)C1CN(C2CC2)C1
IC50: < 100 nM

O=C(NC(CO)c1ccccn1)c1cnc2c(Oc3ccc(C(F)(F)F)cc3)cccc2c1 (stereo not drawn)
IC50: < 100 nM

CC(C)NC(=O)c1ccc2c(Oc3ccc(C(F)(F)F)cc3F)cccc2c1
IC50: < 100 nM

C[C@H](NC(=O)c1ccc2c(Oc3ccc(C(F)(F)F)cc3)cccc2c1)C1CN(CCF)C1
IC50: in the range around 2000 nM

C[C@H](CCO)NC(=O)c1ccc2c(Oc3ccc(C(F)(F)F)cc3)cccc2c1
IC50: < 100 nM

C[C@H](CCN)NC(=O)c1ccc2c(Oc3ccc(C(F)(F)F)cc3)cccc2c1
IC50: < 100 nM

C[C@H](NC(=O)c1ccc2c(Oc3ccc(C(F)(F)F)cc3)cccc2c1)c1cccc(N)n1
IC50: in the range around 550 nM

C[C@H](NC(=O)c1ccc2c(Oc3ccc(C(F)(F)F)cc3)cccc2c1)c1cc(N)ccn1
IC50: in the range around 550 nM

C[C@H](CO)NC(=O)c1cnc2c(Oc3ccc(C(F)(F)F)cc3)cccc2c1
IC50: < 100 nM

CS(=O)(=O)NC(=O)c1ccc2c(Oc3ccc(C(F)(F)F)cc3)cccc2c1
IC50: < 100 nM

O=C(N[C@@H](CO)C1CNC1)c1ccc2c(Oc3ccc(C(F)(F)F)cc3)cccc2c1
IC50: in the range around 2000 nM

C[C@H](NC(=O)c1ccc2c(Oc3ccc(C(F)(F)F)cc3)cccc2c1)c1ncc[nH]1
IC50: in the range around 550 nM

C[C@H](NC(=O)c1ccc2c(Oc3ccc(C(F)(F)F)cc3)cccc2c1)c1cn(C)cn1
IC50: in the range around 550 nM

CC(C)N1CC([C@@H](C)NC(=O)c2ccc3c(Oc4ccc(C(F)(F)F)cc4)cccc3c2)C1
IC50: in the range around 2000 nM

COC[C@H](C)NC(=O)c1cnc2c(Oc3ccc(C(F)(F)F)cc3)cccc2c1
IC50: < 100 nM

N#CCCNC(=O)c1ccc2c(Oc3ccc(C(F)(F)F)cc3)cccc2c1
IC50: < 100 nM

C[C@@H](NC(=O)c1ccc2c(Oc3ccc(C(F)(F)F)cc3)cccc2c1)C1CN(CCO)C1
IC50: in the range around 550 nM

C[C@H](CCNCCO)NC(=O)c1ccc2c(Oc3ccc(C(F)(F)F)cc3)cccc2c1
IC50: < 100 nM

C[C@H](NC(=O)c1ccc2c(Oc3ccc(C(F)(F)F)cc3)cccc2c1)c1cc(N(C)C)ccn1
IC50: in the range around 550 nM

C[C@H](NC(=O)c1ccc2c(Oc3ccc(C(F)(F)F)cc3)cccc2c1)C1CN(CCO)C1
IC50: in the range around 550 nM

O=C(N[C@@H](CCO)c1ccccn1)c1ccc2c(Oc3ccc(C(F)(F)F)cc3)cccc2c1
IC50: < 100 nM

C[C@H](NC(=O)c1ccc2c(Oc3ccc(C(F)(F)F)cc3)cccc2c1)c1ccccn1
IC50: < 100 nM

C[C@H](NC(=O)c1ccc2c(Oc3ccc(C(F)(F)F)cc3)cccc2c1)c1nn[nH]n1
IC50: in the range around 2000 nM

C[C@H](NC(=O)c1ccc2c(Oc3ccc(C(F)(F)F)cc3)cccc2c1)c1nccn1C
IC50: in the range around 550 nM

C[C@@H](NC(=O)c1cnc2c(Oc3ccc(C(F)(F)F)cc3)cccc2c1)c1cccc2nc[nH]c12
IC50: in the range around 550 nM

C[C@H](NC(=O)c1ccc2c(Oc3ccc(C(F)(F)F)cc3)cccc2c1)c1cnccn1
IC50: in the range around 550 nM

C[C@H](NC(=O)c1ccc2c(Oc3ccc(C(F)(F)F)cc3)cccc2c1)c1c[nH]cn1
IC50: < 100 nM

C[C@@H](NC(=O)c1ccc2c(Oc3ccc(C(F)(F)F)cc3)cccc2c1)C1CCC1
IC50: < 100 nM

CC(C)NC(=O)c1ccc2c(Oc3ccc(C(F)(F)F)cc3)ccnc2c1
IC50: in the range around 550 nM

C#CCNC(=O)c1ccc2c(Oc3ccc(C(F)(F)F)cc3)cccc2c1
IC50: < 100 nM

C[C@H](CO)NC(=O)c1ccc2c(Oc3ccc(C(F)(F)F)cc3)nccc2c1
IC50: < 100 nM

C[C@H](NC(=O)c1ccc2c(Oc3ccc(C(F)(F)F)cc3)cccc2c1)c1nnnn1C
IC50: in the range around 550 nM

C[C@@H](CN)NC(=O)c1ccc2c(Oc3ccc(C(F)(F)F)cc3)cccc2c1
IC50: < 100 nM

C[C@H](NC(=O)c1ccc2c(Oc3ccc(C(F)(F)F)cc3)cccc2c1)c1ccccc1Cl
IC50: < 100 nM

C[C@H](NC(=O)c1ccc2c(Oc3ccc(C(F)(F)F)cc3)cccc2c1)C1CC1
IC50: < 100 nM

CC(=O)N1CC([C@H](C)NC(=O)c2ccc3c(Oc4ccc(C(F)(F)F)cc4)cccc3c2)C1
IC50: in the range around 550 nM

O=C(N[C@H](CO)c1ccccn1)c1ccc2c(Oc3ccc(C(F)(F)F)cc3)cccc2c1
IC50: < 100 nM

C[C@@H](NC(=O)c1ccc2c(Oc3ccc(C(F)(F)F)cc3)cccc2c1)c1cnccn1
IC50: < 100 nM

O=C(NC(CCO)c1ccccn1)c1ccc2c(Oc3ccc(C(F)(F)F)cc3)cccc2c1 (stereo not drawn)
IC50: < 100 nM

O=C(NC(CO)Cc1ccccn1)c1ccc2c(Oc3ccc(C(F)(F)F)cc3)cccc2c1 (stereo not drawn)
IC50: < 100 nM

C[C@@H](NC(=O)c1ccc2c(Oc3ccc(C(F)(F)F)cc3)cccc2c1)c1cc(N)ccn1
IC50: < 100 nM

C[C@@H](NC(=O)c1ccc2c(Oc3ccc(C(F)(F)F)cc3)cccc2c1)C1COC1
IC50: < 100 nM

C[C@H](NC(=O)c1cc2cccc(Oc3ccc(C(F)(F)F)cc3)c2s1)c1ccccn1
IC50: < 100 nM

COc1cc(Oc2ccc(C(F)(F)F)cc2)c2ncc(C(=O)NC(CO)c3ccccn3)cc2c1 (stereo not drawn)
IC50: < 100 nM

— ChEMBL document CHEMBL5729264, “Bicyclic compounds” (2022)
